The values that follow come from article PMC8794255, “Small molecule inhibitor of Igf2bp1 represses Kras and a pro-oncogenic phenotype in cancer cells” (RNA Biology, 2021).

Structures are written as SMILES. pIC50, pKd: −log10 of the molar value.

The subject of data set [1] is H1299 cells. The data set can be described thus: qPCR of Igf2bp1 target RNAs in H1299 cells. The class given is cell-based, human. Here is the method: (§1) Cells were grown for 12 hours in 12 well plates prior to incubation with the compound at different concentrations for an additional 12 or 24 hours. Total RNA was then extracted using EZ-RNA total RNA isolation kit (Biological Industries) and cDNA prepared from the RNA using the First Strand cDNA Synthesis kit (Quanta bio). Real time PCR was performed with Fast SYBR Green Master Mix (Thermo Fisher Scientific), and cDNA expression analysed with the Bio-Rad CFX Manager 3.1.
In general terms: Quantitative PCR measures a nucleic acid by following its amplification.

Data set [2] has as its system H1299 cells. Nature of the data set: Cell proliferation assay (Incucyte), H1299. The format is cell-based, human. Here is the method: ES2, H1299 and HEK293 cells were seeded in a 96 well plate (5X10^3 cells per well) for 24 hours before adding the compound at increasing concentrations. After an additional 24 hours, the plate was incubated in an IncuCyte® S3 Live-Cell Analysis System (Essen BioScience). The wells were filmed for 72 hours, and then analysed for proliferation rate Using IncuCyte® S3 Live-Cell Analysis System (Essen BioScience)

The test system of data set [3] is LKR-M cells expressing GFP alone. The data set can be described thus: Wound healing assay, LKR-M cells expressing GFP alone. The format is cell-based, mouse. The settings on record: 20 μM 7773 vs DMSO. As to the method:
(§2) Cells were seeded in 96 IncuCyte® ImageLock plates (20X10^3 cells per well) for 24 hours, to a near confluency of 95%, before the addition of increasing concentrations of compound. After a further 24 hours, wells were scratched using the IncuCyte® 96-well WoundMaker Tool, and the cells cultured for an additional 48 hours using the IncuCyte® S3 Live-Cell Analysis System (Essen BioScience). The plate was imaged at increments of 120 minutes for a period of 48 hours, and then analysed for relative wound healing.

In data set [4] the target is T1, La (Homo sapiens, UniProt P05455).
T1 sequence (P05455 1-408): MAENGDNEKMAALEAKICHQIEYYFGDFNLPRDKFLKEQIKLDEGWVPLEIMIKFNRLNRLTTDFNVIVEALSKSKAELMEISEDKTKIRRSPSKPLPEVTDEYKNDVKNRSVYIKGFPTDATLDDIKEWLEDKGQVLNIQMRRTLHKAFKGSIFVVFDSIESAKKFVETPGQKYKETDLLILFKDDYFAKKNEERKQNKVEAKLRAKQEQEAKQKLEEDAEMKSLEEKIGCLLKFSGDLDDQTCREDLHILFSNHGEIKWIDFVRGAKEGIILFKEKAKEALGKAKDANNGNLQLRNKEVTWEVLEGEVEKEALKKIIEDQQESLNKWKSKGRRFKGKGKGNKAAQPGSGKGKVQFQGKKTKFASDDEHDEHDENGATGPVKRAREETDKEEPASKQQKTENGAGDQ
Nature of the data set: FP counterscreen: La binding to Bcl2 RNA. (Counterscreens check selectivity or assay interference.)

For the next data set, the target named is T2, Igf2bp2 (Homo sapiens, UniProt Q9Y6M1).
T2 construct: made in house
T2 sequence (Q9Y6M1 whole entry, species assumed): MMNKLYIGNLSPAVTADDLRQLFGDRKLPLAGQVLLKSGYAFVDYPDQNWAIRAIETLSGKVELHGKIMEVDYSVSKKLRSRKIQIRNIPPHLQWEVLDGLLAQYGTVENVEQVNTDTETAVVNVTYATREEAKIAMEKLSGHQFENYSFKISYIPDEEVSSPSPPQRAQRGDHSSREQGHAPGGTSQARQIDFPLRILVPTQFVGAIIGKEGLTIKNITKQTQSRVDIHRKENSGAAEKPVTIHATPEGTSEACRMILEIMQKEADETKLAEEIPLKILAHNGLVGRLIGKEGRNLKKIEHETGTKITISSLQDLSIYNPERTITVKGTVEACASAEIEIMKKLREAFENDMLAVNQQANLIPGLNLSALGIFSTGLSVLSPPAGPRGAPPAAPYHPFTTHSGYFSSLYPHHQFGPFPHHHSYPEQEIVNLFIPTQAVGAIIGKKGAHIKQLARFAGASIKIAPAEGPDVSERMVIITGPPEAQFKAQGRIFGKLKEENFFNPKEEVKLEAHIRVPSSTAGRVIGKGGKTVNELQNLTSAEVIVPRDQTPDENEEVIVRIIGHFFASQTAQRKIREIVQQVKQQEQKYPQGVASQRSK
Nature of the data set: MST, Igf2bp2. The class given is binding.

Data set [5] relates to ES2 cells. The data set can be described thus: qPCR of Igf2bp1 target RNAs in ES2 cells. The class given is cell-based, human. Here is the method: as §1
The target in a further data set is T3, Igf2bp1 (Homo sapiens, UniProt Q9NZI8).
T3 construct: Recombinant full-length Igf2bp1 protein was labelled with RED-tris-NTA dye; made in house
T3 sequence (Q9NZI8 whole entry): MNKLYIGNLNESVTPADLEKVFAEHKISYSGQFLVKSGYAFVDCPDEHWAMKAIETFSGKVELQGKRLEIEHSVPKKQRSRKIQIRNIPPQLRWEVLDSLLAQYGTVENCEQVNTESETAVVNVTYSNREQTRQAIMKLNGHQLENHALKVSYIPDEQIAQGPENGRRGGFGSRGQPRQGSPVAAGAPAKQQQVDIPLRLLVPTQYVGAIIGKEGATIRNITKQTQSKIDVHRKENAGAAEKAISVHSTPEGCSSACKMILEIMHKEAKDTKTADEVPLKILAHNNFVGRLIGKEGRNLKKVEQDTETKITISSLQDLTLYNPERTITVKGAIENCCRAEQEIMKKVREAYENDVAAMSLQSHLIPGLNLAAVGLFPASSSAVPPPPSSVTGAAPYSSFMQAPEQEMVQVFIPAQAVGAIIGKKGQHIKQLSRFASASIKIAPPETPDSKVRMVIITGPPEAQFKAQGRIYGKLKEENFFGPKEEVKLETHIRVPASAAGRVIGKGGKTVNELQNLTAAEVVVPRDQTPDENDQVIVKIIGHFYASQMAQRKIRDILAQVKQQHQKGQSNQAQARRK
The data set can be described thus: Microscale thermophoresis (MST), full-length Igf2bp1. The settings on record: full-length protein, read-out: KD of compound binding to Igf2bp1. Here is the method: (§3) Recombinant full-length Igf2bp1 protein was labelled with RED-tris-NTA dye using a Monolith NT His-Tag Labelling Kit (NanoTemper) while RRM12, KH12 and KH34 di-domain peptides were labelled using the Protein Labelling Kit RED NHS 2nd generation (NanoTemper). Labelled proteins were spun at 15,000 g for 5 min to eliminate aggregates. All samples were 2X labelled protein mix of Igf2bp1 (200 nM) in PBST and were combined (1:1) with serial dilutions of compound or Kras6 RNA in binding buffer (10mMTris pH = 7.5, 100 mM NaCl, 0.1 mM EDTA, 0.06% IPEGAL, 0.02 μg/μL tRNA, 2 mM DTT, 0.1 μg/μL heparin) in final volume of 20 μL, room temperature for 15 min. Samples were then loaded into standard capillaries (NanoTemper) and read in the Monolith NT.115 scanner (NanoTemper) using the red filter with reading conditions of 95% LED power and 40% MST power, 5 sec fluorescence before, 30 sec MST on, 5 sec fluorescence after and 25 sec delay between samples. Results were analysed using the MO Control software (NanoTemper) for curve fitting to KD.

A further data set deals with T4, Igf2bp1 RRM12 di-domain (Homo sapiens, UniProt Q9NZI8).
T4 construct: Human Igf2bp1 di-domains RRM12 (M1-P188) and KH34 (P387-A574); 6xHis (N, cleaved yes); made in house; host or cells: E. coli BL21(DE3)
T4 sequence (Q9NZI8 1-188): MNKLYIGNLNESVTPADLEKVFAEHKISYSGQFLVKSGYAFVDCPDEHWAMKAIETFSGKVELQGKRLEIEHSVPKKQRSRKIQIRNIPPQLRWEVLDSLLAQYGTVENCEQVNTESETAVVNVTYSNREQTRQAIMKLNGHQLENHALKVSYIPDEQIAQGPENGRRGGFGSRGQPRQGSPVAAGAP
Nature of the data set: MST, Igf2bp1 RRM12 di-domain. The following applies: read-out: KD of binding to RRM12. As to the method: as §3
The open reading frame of Igf2bps were cloned into the pET-21(d) plasmid (Novagen) between the Nco1 and Xho1 sites, as previously described. […]

In data set [6] the target is T1, La. The data set can be described thus: MST, La protein. The class given is binding.
Data set [7] concerns H1299 cells. Nature of the data set: Wound healing (cell migration) assay, H1299. The format is cell-based, human. As to the method:
as §2

In data set [8] the test system is ES2 cells. The data set can be described thus: Wound healing (cell migration) assay, ES2. The format is cell-based, human. As to the method: as §2
Data set [9] deals with LKR-M cells overexpressing human Igf2bp1-GFP. Nature of the data set: Wound healing assay, LKR-M cells expressing human Igf2bp1-GFP. The format is cell-based, mouse. The following applies: 20 μM 7773 vs DMSO. Here is the method: as §2

By pIC50 is commonly meant the negative decadic logarithm of the IC50, by convention in mol/L. What is called pKd is the Kd on a negative log10 scale, so that one unit is a factor of ten. `O=C(c1ccc(Cn2cnnn2)cc1)N1CCCC(Nc2ccc3c(c2)OCO3)C1` (stereo not shown) [compound 7773]: the “Steady state level of Kras mRNA” value in the data set with H1299 cells [1] (H1299, 20 μM 7773, 12 hours) was “already reduced”. Besides, the “Steady state levels of CD44, Kras, cMyc and SRF RNA” value in the data set on H1299 cells [1] (H1299, 20 μM 7773, 24 hours) is “all of the RNAs significantly reduced”; in the data set with ES2 cells [5] (ES2, 20 μM 7773, 12 hours), “all of the assayed RNAs were reduced”; with ES2 cells [5] (ES2, 20 μM 7773, 24 hours), 3 of the 4 RNAs showing similar or even enhanced reduction. For the same compound, the “Levels of control RNAs that are not targets of Igf2bp1” value in the data set with H1299 cells [1] (H1299, 24 hours) is “not significantly affected”; in the data set with ES2 cells [5] (ES2, 24 hours), “not significantly affected”. Besides, the “Effect on cell proliferation or cytotoxicity” value with H1299 cells [2] (H1299, 20 μM 7773) is “virtually no effect”. Further, the Cell proliferation entry in the data set on H1299 cells [2] (H1299, up to 20 μM) is on record as “remarkably unaffected”. Also, the “Effect on migration of cells expressing GFP alone” value in data set [3] is “unaffected”. The “Effect on control RBP (La) binding to its target (Bcl2 RNA)” value on La [4] is “almost no effect”. Also, on La [4] (control RNA binding protein, read-out: IC50, inhibition of La binding to Bcl2 RNA), the pIC50 was under 4.00. Moreover, the pKd at Igf2bp2 (IGF2BP2 50nM, read-out: KD of binding to Igf2bp2) is under 3.82; at Igf2bp1, 4.77; at Igf2bp1 RRM12 di-domain, 5.82. Moreover, the “Binding to Igf2bp2” value at Igf2bp2 (even at concentrations that almost saturate binding to Igf2bp1) is given as “did not significantly bind”. For the same compound, the “Steady state level of CD44 RNA” value in the data set with ES2 cells [5] (ES2, 20 μM 7773, 12 and 24 hours) was “strongly reduced after 12 hours, but appeared to recover after 24 hours”. Further, the “Binding to La” value on La [6] is given as “No binding”. Moreover, the Wound healing entry was “strongly inhibited” in the data set with H1299 cells [7] (H1299, 20 μM); “discernible inhibition” with H1299 cells [7] (H1299, lowest concentration 5 μM); “strongly inhibited” with ES2 cells [8] (ES2, 20 μM); “discernible inhibition” with ES2 cells [8] (ES2, lowest concentration 5 μM). Moreover, the “Effect on Igf2bp1-GFP-enhanced wound healing” value in data set [9] is reported as “significantly inhibited”.
